Reference: ChEMBL document CHEMBL1158818, “Alkaloids from the sponge Monanchora unguifera” (J Nat Prod, 2005)

Legend:
Assay type in all cases: functional, cell-based
[1] = tested on: P388; assay: Cytotoxicity against mouse P388 cells
[2] = tested on: A549; assay: Cytotoxicity against human A549 cells
[3] = tested on: HT-29; assay: Cytotoxicity against human HT-29 cells
[4] = tested on: SK-MEL-28; assay: Cytotoxicity against human SK-MEL-28 cells
[5] = tested on: DU-145; assay: Cytotoxicity against human DU145 cells

Measured: IC50

CCCCCCC[C@@H]1C[C@@H]2CCC3=C(C(=O)OCCCCCCC[C@@H]4C[C@@H]5CCC6=C(C(=O)OCCCCNC(=N)N)C(C)N=C(N4)N65)C(C)N=C(N1)N32 (stereo not given in full) [BATZELLADINE J]
> 1 µg/mL: all assays above
